Counter-ions that a name gives are not always drawn.
What was measured:
Dopamine D2 = Dopamine D2 (Homo sapiens, UniProt P14416); experiment: Dopamine D2 binding
From the text: (§1) Further, the compounds of the invention may be tested in binding assays and functional activity assays by well known methods for other physiologically important receptors such as, but not limited to, the hERG channel, other serotonin receptors (specifically 5-HT1B and 5-HT1D receptors, lack of agonist activity at 5-HT2B receptors, 5-HT2C, 5-HT5, 5-HT6, and 5-HT7 receptors), dopaminergic receptors (specifically D1, D2, and D3), GABAA receptors, adrenergic receptors and monoamine transporters.

male Wistar rats = experiment: Sleep and behavioral monitoring in rats (EEG, EMG, motion); format: in vivo; settings: for Rebound Insomnia Adj. Mean: NREM+REM sleep in 7th-9th hours post-treatment; for Rebound Insomnia Adj. Mean / Cumulative Total sleep Adj. Mean / REM inhibition Adj. Mean / Cumulative NREM sleep Adj. Mean / Locomotor Activity Intensity Adj. Mean: adjusted difference from vehicle; for Cumulative Total sleep Adj. Mean: NREM+REM; for Cumulative Total sleep Adj. Mean / Average Sleep Bout Adj. Mean / Longest Sleep Bout Adj. Mean / Cumulative NREM sleep Adj. Mean / Locomotor Activity Intensity Adj. Mean: first 6 hr. post-treatment; for REM inhibition Adj. Mean: cumulative REM sleep, first 12 hr. post-treatment
Method: The compound of the present invention is tested in rats for its ability to increase the amount of sleep or decrease sleep interruption or both without undesired effects such as inhibition of REM sleep, waking motor impairment, and/or rebound insomnia. Test animals are continuously monitored by electro-encephalograms (EEG), electromyograms (EMG), and motion to measure cumulative nonREM sleep, cumulative total sleep, average sleep bout duration, longest sleep bout duration, rebound insomnia, REM sleep inhibition and locomotor activity intensity during wakefulness. Methods for such studies are known in the art (see for example methods described in Edgar D M, Seidel W F. Modafinil induces wakefulness without intensifying motor activity or subsequent rebound hypersomnolence in the rat. J Pharmacology & Experimental Therapeutics 1997; 283: 757-769; van Gelder R N, Edgar D M, Dement W C. Real-time automated sleep scoring: validation of a microcomputer-based system for mice. Sleep 1991, 14: 48-55; and Gross B A, Walsh C M, Turakhia A A, Booth V, Mashour G A, Poe G R. Open-source logic-based automated sleep scoring software using electrophysiological recordings in rats. J Neurosci Methods. 2009; 184(1):10-8.) Studies are conducted as follows:
Adult, male Wistar rats (approximately 270-300 g at time of surgery) are surgically fitted for chronic recording of EEG, EMG, and motion as follows: Rats are surgically prepared with a cranial implant consisting of four stainless steel screws for EEG recording (two frontal [3.9 mm anterior from bregma, and ±2.0 mm mediolaterally] and two occipital [6.4 mm posterior from bregma, ±5.5 mm mediolaterally]), and with two Teflon-coated stainless steel wires for EMG recording (positioned under the nuchal trapezoid muscles). All leads are soldered to a miniature connector (Microtech, Boothwyn, Pa.) prior to surgery. The implant assembly is affixed to the skull by the combination of the stainless steel EEG recording screws, cyanoacrylate applied between the implant connector and skull, and dental acrylic. Locomotor activity is monitored via a miniature transmitter (Minimitter PDT4000G, Philips Respironics, Bend, Oreg.) surgically placed into the abdomen. At least 3 weeks are allowed for recovery.
Each rat is housed individually within a microisolator cage modified with an inserted polycarbonate filter-top riser to allow more vertical headroom. A flexible cable that minimally restricts movement is connected at one end to a commutator afixed to the cage top and at the other end to the animal's cranial implant. Each cage is located within separate, ventilated compartments of a stainless steel sleep-wake recording chamber. Food and water are available ad libitum and the ambient temperature is maintained at about 23±1° C. A 24-hr light-dark cycle (LD 12:12) using fluorescent light is maintained throughout the study. Relative humidity averages approximately 50%. Animals are undisturbed for at least 30 his before and after each treatment.
The vehicle (placebo, methylcellulose 15 centipoise 0.25% in water) or one of the test compound dose levels is administered orally at 1 mL/kg pseudo-randomly such that no rat receives the same treatment twice, and no rat receives more than two of the 8 treatments in any one study. Each rat is removed from its cage for about a minute to be weighed and treated. At least 6 days “washout” period precede and follow each treatment. […]

Serotonin Transporter = Serotonin Transporter (Homo sapiens, UniProt P31645); experiment: Serotonin transporter binding
From the text: as §1

5-HT6 = 5-HT6 (Homo sapiens, UniProt P50406); experiment: 5-HT6 binding
From the text: as §1

[1] = threshold efficacy dose, 6 hr. after treatment, 4 parameter logistic regression, freebase
[2] = within 10 times the most conservative efficacy dose (0.78 mg/kg)

Chain of Dopamine D2 (P14416 whole entry): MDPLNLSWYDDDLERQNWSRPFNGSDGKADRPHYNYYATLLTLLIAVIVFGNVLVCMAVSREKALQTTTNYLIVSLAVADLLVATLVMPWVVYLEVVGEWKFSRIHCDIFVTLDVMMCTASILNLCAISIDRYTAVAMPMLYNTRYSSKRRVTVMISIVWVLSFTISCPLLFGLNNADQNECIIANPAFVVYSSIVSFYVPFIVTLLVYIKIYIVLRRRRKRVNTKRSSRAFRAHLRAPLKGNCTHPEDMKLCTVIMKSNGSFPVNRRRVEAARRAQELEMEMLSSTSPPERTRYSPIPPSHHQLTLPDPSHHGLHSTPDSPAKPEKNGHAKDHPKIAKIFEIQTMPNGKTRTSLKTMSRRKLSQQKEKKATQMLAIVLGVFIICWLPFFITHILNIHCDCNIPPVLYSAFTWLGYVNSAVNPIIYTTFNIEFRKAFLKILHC
Chain of Serotonin Transporter (P31645 whole entry): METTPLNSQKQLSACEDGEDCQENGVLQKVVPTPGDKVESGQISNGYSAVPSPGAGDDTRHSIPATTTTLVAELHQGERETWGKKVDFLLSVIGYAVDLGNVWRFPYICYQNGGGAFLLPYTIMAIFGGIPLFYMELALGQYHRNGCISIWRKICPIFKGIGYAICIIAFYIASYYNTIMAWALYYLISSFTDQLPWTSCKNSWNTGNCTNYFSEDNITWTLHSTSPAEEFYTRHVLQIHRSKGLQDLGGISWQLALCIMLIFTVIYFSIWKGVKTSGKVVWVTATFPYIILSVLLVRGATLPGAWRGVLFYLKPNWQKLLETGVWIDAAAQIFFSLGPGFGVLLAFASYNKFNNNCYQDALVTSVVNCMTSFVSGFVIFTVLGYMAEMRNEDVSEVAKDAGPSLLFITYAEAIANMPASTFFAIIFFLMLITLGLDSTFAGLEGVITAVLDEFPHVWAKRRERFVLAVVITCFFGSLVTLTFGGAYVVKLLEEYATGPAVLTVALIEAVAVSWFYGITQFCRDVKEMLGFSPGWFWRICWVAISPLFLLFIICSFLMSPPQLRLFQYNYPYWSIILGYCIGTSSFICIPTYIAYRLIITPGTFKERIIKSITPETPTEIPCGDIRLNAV
Chain of 5-HT6 (P50406 whole entry, species assumed): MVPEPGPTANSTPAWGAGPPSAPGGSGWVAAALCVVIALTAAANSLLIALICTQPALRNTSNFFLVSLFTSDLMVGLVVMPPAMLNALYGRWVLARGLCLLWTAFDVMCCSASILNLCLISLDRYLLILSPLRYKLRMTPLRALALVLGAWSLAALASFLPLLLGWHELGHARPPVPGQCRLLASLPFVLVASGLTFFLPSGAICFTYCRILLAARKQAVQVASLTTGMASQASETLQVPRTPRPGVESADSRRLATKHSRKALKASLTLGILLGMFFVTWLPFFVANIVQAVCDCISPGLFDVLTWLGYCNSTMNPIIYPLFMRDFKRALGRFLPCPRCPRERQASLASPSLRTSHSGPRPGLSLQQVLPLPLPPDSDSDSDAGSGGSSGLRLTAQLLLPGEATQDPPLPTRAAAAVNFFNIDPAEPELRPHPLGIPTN

Compound: Cc1ccc2c(c1)Oc1sc(C3CC3)cc1C(N1CCN(CC(C)(C)C(=O)O)CC1)=N2 [Example 2, 3-[4-(2-Cyclopropyl-8-methyl-thieno[2,3-b][1,5]benzoxazepin-4-yl)piperazin-1-yl]-2,2-dimethyl-propanoic acid dihydrochloride]
- Ki (Dopamine D2): 2320 nM
- Rebound Insomnia Adj. Mean (male Wistar rats; 0.025 mg/kg PO): 0.40 min
- Cumulative Total sleep Adj. Mean (male Wistar rats; 0.025 mg/kg PO): 3.6 min
- REM inhibition Adj. Mean (male Wistar rats; 0.025 mg/kg PO): 5.0 min
- Average Sleep Bout Adj. Mean (male Wistar rats; 0.025 mg/kg PO): 1.08 n-fold increase over vehicle controls
- Longest Sleep Bout Adj. Mean (male Wistar rats; 0.025 mg/kg PO): 1.26 n-fold increase over vehicle controls
- Cumulative NREM sleep Adj. Mean (male Wistar rats; 0.025 mg/kg PO): -2.3 min
- Locomotor Activity Intensity Adj. Mean (male Wistar rats; 0.025 mg/kg PO): −1.40 LMA counts per minute of EEG-defined wakefulness
- Rebound Insomnia Adj. Mean (male Wistar rats; 0.1 mg/kg PO): -0.027 min
- Cumulative Total sleep Adj. Mean (male Wistar rats; 0.1 mg/kg PO): 16.9 min
- REM inhibition Adj. Mean (male Wistar rats; 0.1 mg/kg PO): -0.71 min
- Average Sleep Bout Adj. Mean (male Wistar rats; 0.1 mg/kg PO): 1.19 n-fold increase over vehicle controls
- Longest Sleep Bout Adj. Mean (male Wistar rats; 0.1 mg/kg PO): 1.07 n-fold increase over vehicle controls
- Cumulative NREM sleep Adj. Mean (male Wistar rats; 0.1 mg/kg PO): 15.4 min
- Locomotor Activity Intensity Adj. Mean (male Wistar rats; 0.1 mg/kg PO): 0.41 LMA counts per minute of EEG-defined wakefulness
- Rebound Insomnia Adj. Mean (male Wistar rats; 0.25 mg/kg PO): 2.2 min
- Cumulative Total sleep Adj. Mean (male Wistar rats; 0.25 mg/kg PO): 23.0 min
- REM inhibition Adj. Mean (male Wistar rats; 0.25 mg/kg PO): 2.8 min
- Average Sleep Bout Adj. Mean (male Wistar rats; 0.25 mg/kg PO): 1.34 n-fold increase over vehicle controls
- Longest Sleep Bout Adj. Mean (male Wistar rats; 0.25 mg/kg PO): 1.55 n-fold increase over vehicle controls
- Cumulative NREM sleep Adj. Mean (male Wistar rats; 0.25 mg/kg PO): 19.1 min
- Locomotor Activity Intensity Adj. Mean (male Wistar rats; 0.25 mg/kg PO): −0.31 LMA counts per minute of EEG-defined wakefulness
- Rebound Insomnia Adj. Mean (male Wistar rats; 0.5 mg/kg PO): -5.0 min
- Cumulative Total sleep Adj. Mean (male Wistar rats; 0.5 mg/kg PO): 32.6 min
- REM inhibition Adj. Mean (male Wistar rats; 0.5 mg/kg PO): 2.3 min
- Average Sleep Bout Adj. Mean (male Wistar rats; 0.5 mg/kg PO): 1.59 n-fold increase over vehicle controls
- Longest Sleep Bout Adj. Mean (male Wistar rats; 0.5 mg/kg PO): 1.81 n-fold increase over vehicle controls
- Cumulative NREM sleep Adj. Mean (male Wistar rats; 0.5 mg/kg PO): 30.6 min
- Locomotor Activity Intensity Adj. Mean (male Wistar rats; 0.5 mg/kg PO): −1.30 LMA counts per minute of EEG-defined wakefulness
- Rebound Insomnia Adj. Mean (male Wistar rats; 1 mg/kg PO): -0.6 min
- Cumulative Total sleep Adj. Mean (male Wistar rats; 1 mg/kg PO): 33.2 min
- REM inhibition Adj. Mean (male Wistar rats; 1 mg/kg PO): 1.2 min
- Average Sleep Bout Adj. Mean (male Wistar rats; 1 mg/kg PO): 1.60 n-fold increase over vehicle controls
- Longest Sleep Bout Adj. Mean (male Wistar rats; 1 mg/kg PO): 2.16 n-fold increase over vehicle controls
- Cumulative NREM sleep Adj. Mean (male Wistar rats; 1 mg/kg PO): 31.0 min
- Locomotor Activity Intensity Adj. Mean (male Wistar rats; 1 mg/kg PO): −2.33 LMA counts per minute of EEG-defined wakefulness
- Rebound Insomnia Adj. Mean (male Wistar rats; 3 mg/kg PO): 1.6 min
- Cumulative Total sleep Adj. Mean (male Wistar rats; 3 mg/kg PO): 31.6 min
- REM inhibition Adj. Mean (male Wistar rats; 3 mg/kg PO): 0.042 min
- Average Sleep Bout Adj. Mean (male Wistar rats; 3 mg/kg PO): 1.92 n-fold increase over vehicle controls
- Longest Sleep Bout Adj. Mean (male Wistar rats; 3 mg/kg PO): 2.16 n-fold increase over vehicle controls
- Cumulative NREM sleep Adj. Mean (male Wistar rats; 3 mg/kg PO): 30.1 min
- Locomotor Activity Intensity Adj. Mean (male Wistar rats; 3 mg/kg PO): 0.01 LMA counts per minute of EEG-defined wakefulness
- Rebound Insomnia Adj. Mean (male Wistar rats; 10 mg/kg PO): 3.3 min
- Cumulative Total sleep Adj. Mean (male Wistar rats; 10 mg/kg PO): 26.3 min
- REM inhibition Adj. Mean (male Wistar rats; 10 mg/kg PO): -7.3 min
- Average Sleep Bout Adj. Mean (male Wistar rats; 10 mg/kg PO): 1.56 n-fold increase over vehicle controls
- Longest Sleep Bout Adj. Mean (male Wistar rats; 10 mg/kg PO): 2.12 n-fold increase over vehicle controls
- Cumulative NREM sleep Adj. Mean (male Wistar rats; 10 mg/kg PO): 26.9 min
- Locomotor Activity Intensity Adj. Mean (male Wistar rats; 10 mg/kg PO): −0.89 LMA counts per minute of EEG-defined wakefulness
- REM sleep inhibition (in words) (male Wistar rats; at 3 mg/kg): without significant
- cumulative NREM sleep time (in words) (male Wistar rats; at 3 mg/kg): significantly increase
- cumulative total sleep time (in words) (male Wistar rats; at 3 mg/kg): significantly increase
- inhibition of locomotor intensity (LMI) (in words) (male Wistar rats; at 3 mg/kg): without significant
- rebound insomnia (in words) (male Wistar rats; at 3 mg/kg): without significant
- REM sleep inhibition versus threshold value (male Wistar rats; at 10 mg/kg, threshold −10 min. cumulative REM sleep (lower confidence limit)): exceeds the threshold value
- change in awake time following treatment (dose response curve, FIG. 2) (male Wistar rats; dose response): does not result in rebound insomnia
- change in cumulative REM sleep time (dose response curve, FIG. 1) (male Wistar rats; dose response): does not inhibit REM sleep
- change in distances moved during periods of wakefulness (dose response curve, FIG. 3) (male Wistar rats; dose response): does not inhibit or stimulate normal activity
- Estimated efficacy dose (mg/kg), NREM accumulation = 30 min. (male Wistar rats; [1]): 0.78 mg/kg
- Estimated efficacy dose (mg/kg), average sleep bout (1.5-fold increase) (male Wistar rats; [1]): 0.33 mg/kg
- Estimated efficacy dose (mg/kg), longest sleep bout (1.75-fold increase) (male Wistar rats; [1]): 0.33 mg/kg
- Estimated efficacy dose (mg/kg), total sleep accumulation = 25 min. (male Wistar rats; [1]): 0.19 mg/kg
- undesired occurrences of REM inhibition (male Wistar rats; [2]): no undesired occurrences
- undesired occurrences of rebound insomnia (male Wistar rats; [2]): no undesired occurrences
- undesired occurrences of reduction in LMI (male Wistar rats; [2]): no undesired occurrences
- Ki (Serotonin Transporter): > 478 nM
- Ki (5-HT6): > 5830 nM

— US9562057B2, “(Thieno[2,3-b][1,5]benzoxazepin-4-yl)piperazin-1-yl compounds as dual activity H1 inverse agonists/5-HT2A antagonists” (Eli Lilly and Company, priority 2013, dated 2017)
